Test results: patent publication US20100317686A1, “N-HETEROCYCLIC-6-HETEROCYCLIC-IMIDAZO[1,2-a]PYRIDINE-2-CARBOXAMIDE DERIVATIVES, PREPARATION AND THERAPEUTIC USE THEREOF” (sanofi-aventis, priority 2008, published 2010)

These compounds were tested against T1, murine Nurr1 receptor (Mus musculus, UniProt Q06219) (assay: In vitro activity on N2A cells (Neuro-2A stably transfected with 8NBRE-luciferase reporter)). Details: N2A-8NBRE cells, 24 hours incubation with product.
T1 construct: a cell line (N2A) endogenously expressing the murine Nurr1 receptor; host or cells: Neuro-2A (N2A) mouse neuroblastoma cells stably transfected with 8NBRE-luciferase
T1 sequence (Q06219 whole entry): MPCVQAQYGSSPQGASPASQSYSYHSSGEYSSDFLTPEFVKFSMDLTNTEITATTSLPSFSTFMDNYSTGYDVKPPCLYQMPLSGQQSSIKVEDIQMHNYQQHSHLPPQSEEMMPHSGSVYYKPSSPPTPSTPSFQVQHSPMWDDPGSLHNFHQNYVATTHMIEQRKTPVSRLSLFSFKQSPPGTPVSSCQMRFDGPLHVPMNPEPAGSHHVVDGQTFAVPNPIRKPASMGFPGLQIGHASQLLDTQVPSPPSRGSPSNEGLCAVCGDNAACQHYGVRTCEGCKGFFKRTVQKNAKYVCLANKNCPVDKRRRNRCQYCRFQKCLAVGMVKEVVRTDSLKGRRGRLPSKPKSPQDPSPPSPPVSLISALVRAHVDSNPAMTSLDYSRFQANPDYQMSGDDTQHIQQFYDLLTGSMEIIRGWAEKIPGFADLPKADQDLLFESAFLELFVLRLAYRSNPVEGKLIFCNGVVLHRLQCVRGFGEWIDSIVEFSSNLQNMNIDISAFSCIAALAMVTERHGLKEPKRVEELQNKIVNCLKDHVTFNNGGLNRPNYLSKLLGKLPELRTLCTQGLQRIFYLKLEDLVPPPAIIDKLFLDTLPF
Type: cell-based
Protocol: The activity of the compounds according to the invention was evaluated on a cell line (N2A) endogenously expressing the murine Nurr1 receptor and stably transfected with the NOT binding response element (NBRE) coupled to the luciferase reporter gene. The EC50 values are between 0.01 and 1000 nM. The tests were performed according to the procedure described hereinbelow.
The cell line Neuro-2A is obtained from a standard commercial source (ATCC). The clone Neuro-2A was obtained from a spontaneous tumour originating from a strain of albino mice A by R. J Klebe et al. This line Neuro-2A is then stably transfected with 8NBRE-luciferase. The N2A-8NBRE cells are cultured to the point of confluence in 75 cm^2 culture flasks containing DMEM supplemented with 10% foetal calf serum, 4.5 g/L of glucose and 0.4 mg/ml of geneticin. After culturing for one week, the cells are recovered with 0.25% trypsin for 30 seconds and then resuspended in DMEM without phenol red, containing 4.5 g/L of glucose and 10% Hyclone defatted serum, and placed in white, transparent-based 96-well plates. The cells are deposited at a rate of 60 000 per well in 75 μL for 24 hours before adding the products. The products are applied in 25 μL and incubated for a further 24 hours. On the day of measurement, an equivalent volume (100 μL) of Steadylite is added to each well, and the wells are then left for 30 minutes to obtain complete lysis of the cells and maximum production of the signal. The plates are then measured in a microplate luminescence counter, after having been sealed with an adhesive film. The products are prepared in the form of a 10^−2 M stock solution, and then diluted in 100% of DMSO. Each concentration of product is prediluted in culture medium before incubation with the cells thus containing 0.625% final of DMSO.
For `O=C(Nc1nccs1)c1cn2cc(-c3ccccn3)ccc2n1` [Compound 7], the EC50 was 0.8 nM.
Work on `O=C(Nc1nccs1)c1cn2cc(-c3cc[nH]n3)ccc2n1` [Compound 56, 6-(1H-Pyrazol-3-yl)-N-(thiazol-2-yl)imidazo[1,2-a]pyridine-2-carboxamide] yielded an EC50 of 1 nM.
For `O=C(Nc1ccon1)c1cn2cc(-c3ccc(CO)o3)ccc2n1` [Compound 22, 6-[5-(Hydroxymethyl)furan-2-yl]-N-(isoxazol-3-yl)imidazo[1,2-a]pyridine-2-carboxamide], the EC50 was 2 nM.
Compound `Nc1cccc(-c2ccc3nc(C(=O)Nc4ccccn4)cn3c2)n1` [Compound 1, 6-(6-Aminopyridin-2-yl)-N-(pyridin-2-yl)imidazo[1,2-a]pyridine-2-carboxamide] has an EC50 of 16 nM.
`O=C(Nc1cc[nH]n1)c1cn2cc(-c3ccccn3)ccc2n1` [Compound 10, N-(1H-Pyrazol-3-yl)-6-(pyridin-2-yl)imidazo[1,2-a]pyridine-2-carboxamide] was tested, and the EC50 was 21 nM.
Compound `O=C(Nc1nncs1)c1cn2cc(-c3cc[nH]n3)ccc2n1` [Compound 58, 6-(1H-Pyrazol-3-yl)-N-(1,3,4-thiadiazol-2-yl)imidazo[1,2-a]pyridine-2-carboxamide] has an EC50 of 5.3 nM.
`O=C(Nc1ccccn1)c1cn2cc(-c3c[nH]cn3)ccc2n1` [Compound 2, 6-(1H-Imidazol-4-yl)-N-(pyridin-2-yl)imidazo[1,2-a]pyridine-2-carboxamide] showed an EC50 of 1.5 nM.
Work on `O=C(Nc1cccc(F)n1)c1cn2cc(-c3ccoc3)ccc2n1` [Compound 36, N-(6-Fluoropyridin-2-yl)-6-(furan-3-yl)imidazo[1,2-a]pyridine-2-carboxamide] yielded an EC50 of 0.4 nM.
`O=C(Nc1nncs1)c1cn2cc(-c3cc[nH]c3)ccc2n1` [Compound 51, 6-(1H-Pyrrol-3-yl)-N-(1,3,4-thiadiazol-2-yl)imidazo[1,2-a]pyridine-2-carboxamide] was tested, and the EC50 was 1.5 nM.
